Calls of active or inactive are those of the source.
Key:
[1] = biological target: T1, Hepatocyte nuclear factor 4-alpha (Homo sapiens, UniProt P41235); format: functional, cell-based;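 also: biochemical luminescence-based dose-response counterscreen measuring inhibition of HNF4 dimerization, run alongside a screen for blockers of ABHD5–perilipin-5 interaction; split luciferase complementation of HNF4 fusion proteins in cell lysate measuring dimerization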
T1 sequence (P41235 whole entry): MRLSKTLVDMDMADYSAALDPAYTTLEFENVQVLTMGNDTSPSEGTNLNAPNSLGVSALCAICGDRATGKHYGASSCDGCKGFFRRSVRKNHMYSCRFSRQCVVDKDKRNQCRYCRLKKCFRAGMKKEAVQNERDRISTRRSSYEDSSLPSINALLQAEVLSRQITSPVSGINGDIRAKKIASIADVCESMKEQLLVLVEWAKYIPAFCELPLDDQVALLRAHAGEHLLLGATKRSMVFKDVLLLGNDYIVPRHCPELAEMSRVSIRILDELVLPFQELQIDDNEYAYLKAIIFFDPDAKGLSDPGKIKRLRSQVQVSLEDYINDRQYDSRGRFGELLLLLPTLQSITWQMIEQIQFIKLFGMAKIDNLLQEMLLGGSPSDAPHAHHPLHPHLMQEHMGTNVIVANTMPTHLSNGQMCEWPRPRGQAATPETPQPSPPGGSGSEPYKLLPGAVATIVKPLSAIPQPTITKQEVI

[2] = HEp-2 cell cytotoxicity, dose response, cytotoxicity control for RSV inhibitor project, HTS (AID 2410); format: functional; details: human respiratory syncytial virus
[3] = C. albicans growth with fluconazole, confirmation, fluorescence, retest (AID 2467); format: functional, cell-based
[4] = non-specific cell cytotoxicity, dose response, cytotoxicity control for PAX8 inhibitor project, plate reader, dry powder samples (AID 743021); format: functional, cell-based
[5] = cytotoxicity toward NIH3T3 fibroblasts, dose response, counter-screen, cell-based, ATP luminescence, mouse fibroblasts (AID 2010); format: functional;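 also: cells exposed to compound for about 90 hours before reading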
[6] = biological target: T2, Heat shock factor protein 1 (Mus musculus, UniProt P38532); assay: inhibition of MG132-induced HSE-luciferase signal, confirmation, cell-based, NIH3T3, luminescence, dose retest (AID 2382); format: functional;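 also: NIH3T3 fibroblasts with HSF1-driven luciferase reporter stressed by proteasome inhibitor MG132; luminescence from HSF1-driven luciferase expression after 8 hours of MG132 stress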
T2 sequence (P38532 whole entry): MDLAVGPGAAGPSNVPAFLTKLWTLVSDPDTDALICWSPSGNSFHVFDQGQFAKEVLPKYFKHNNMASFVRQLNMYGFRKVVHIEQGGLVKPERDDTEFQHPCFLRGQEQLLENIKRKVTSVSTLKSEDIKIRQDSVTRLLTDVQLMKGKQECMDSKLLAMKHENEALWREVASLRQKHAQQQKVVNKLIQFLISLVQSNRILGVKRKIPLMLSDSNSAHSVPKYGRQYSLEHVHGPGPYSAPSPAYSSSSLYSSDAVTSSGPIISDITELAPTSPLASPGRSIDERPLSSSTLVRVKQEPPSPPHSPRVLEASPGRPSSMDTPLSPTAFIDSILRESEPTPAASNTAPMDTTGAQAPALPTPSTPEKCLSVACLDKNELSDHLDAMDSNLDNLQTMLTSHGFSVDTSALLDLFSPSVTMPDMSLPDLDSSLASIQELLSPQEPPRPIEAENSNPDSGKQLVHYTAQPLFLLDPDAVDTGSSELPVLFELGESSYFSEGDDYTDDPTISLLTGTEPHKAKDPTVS

[7] = control 3'UTR Renilla luciferase suppression, dose response, counter-screen for Shn3 inhibitor project, cell-based, Clone20-Shn3RL, cherry-picked (AID 624133); format: functional
[8] = inhibitors of intracellular T. cruzi replication, confirmation, NIH3T3 host cells, beta-gal luminescence (AID 2044); format: functional, cell-based;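 also: intracellular parasites grown in NIH/3T3 mouse fibroblasts as host cells; luminescent beta-galactosidase reporter signal from transgenic T. cruzi replicating inside host cells; inhibitors lower the luminescence signal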
[9] = NIH-3T3 fibroblast cytotoxicity, dose response, cytotoxicity control, cell-based, fluorescence, Alamar Blue, secondary assay (AID 2327); format: functional;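 also: NIH-3T3 mouse fibroblasts cultured with fluconazole at 8 µg/mL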
[10] = HepG2 cell cytotoxicity, dose response, cytotoxicity control for Shn3 inhibitor project, CellTiter-Glo, cherry-picked (AID 624134); format: functional, cell-based
[11] = biological target: Paired box protein Pax-8 (Homo sapiens, UniProt Q06710); assay: inhibitors of PAX8-driven TPO luciferase reporter, dose response, RMG-I cells, cherry-pick (AID 687027); format: functional, cell-based;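 also: luciferase reporter driven by Pax8 target thyroperoxidase promoter measured by SteadyGlo luminescence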
[12] = Shn3 3'UTR reporter inhibitors, dose response, cell-based, Clone20 osteoblasts, firefly luciferase, cherry-picked (AID 624132); format: functional;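 also: firefly luciferase luminescence from reporter carrying the Shn3 3'UTR in osteoblasts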
[13] = biological target: T3, Protein RecA (Mycobacterium tuberculosis, UniProt P9WHJ3); assay: Fluorescence Cell-Free Homogeneous Dose Retest to Identify Inhibitors of RecA-Intein Splicing Activity. [Related pubchem assays (depositor defined):AID2097, AID2223, AID489010, AID492950]; format: functional
T3 sequence (P9WHJ3 whole entry): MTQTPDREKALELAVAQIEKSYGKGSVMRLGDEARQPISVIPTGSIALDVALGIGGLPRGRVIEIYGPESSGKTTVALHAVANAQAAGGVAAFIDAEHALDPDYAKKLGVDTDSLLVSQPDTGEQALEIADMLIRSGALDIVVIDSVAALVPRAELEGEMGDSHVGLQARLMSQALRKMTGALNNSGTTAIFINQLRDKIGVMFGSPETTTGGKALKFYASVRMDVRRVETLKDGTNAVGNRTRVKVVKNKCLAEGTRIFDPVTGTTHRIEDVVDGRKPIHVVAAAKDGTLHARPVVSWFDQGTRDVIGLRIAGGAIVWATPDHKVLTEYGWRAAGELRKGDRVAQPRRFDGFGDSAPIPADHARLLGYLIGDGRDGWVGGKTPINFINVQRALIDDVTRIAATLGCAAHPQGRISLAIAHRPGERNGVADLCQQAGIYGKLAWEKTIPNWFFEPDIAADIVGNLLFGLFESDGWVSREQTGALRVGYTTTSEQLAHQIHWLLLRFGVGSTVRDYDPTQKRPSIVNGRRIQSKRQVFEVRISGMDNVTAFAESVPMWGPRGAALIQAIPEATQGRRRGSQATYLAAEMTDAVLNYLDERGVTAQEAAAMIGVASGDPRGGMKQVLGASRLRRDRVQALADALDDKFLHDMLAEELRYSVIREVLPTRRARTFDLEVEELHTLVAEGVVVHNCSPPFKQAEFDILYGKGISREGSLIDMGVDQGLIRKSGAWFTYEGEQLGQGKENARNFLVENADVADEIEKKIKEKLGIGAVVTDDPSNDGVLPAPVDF

[14] = biological target: T4, Replicative DNA helicase DnaB (Mycobacterium tuberculosis, UniProt P9WMR3); assay: DnaB intein splicing inhibitors, dose response, biochemical, cell-free fluorescence (AID 449749); format: functional
T4 sequence (P9WMR3 whole entry): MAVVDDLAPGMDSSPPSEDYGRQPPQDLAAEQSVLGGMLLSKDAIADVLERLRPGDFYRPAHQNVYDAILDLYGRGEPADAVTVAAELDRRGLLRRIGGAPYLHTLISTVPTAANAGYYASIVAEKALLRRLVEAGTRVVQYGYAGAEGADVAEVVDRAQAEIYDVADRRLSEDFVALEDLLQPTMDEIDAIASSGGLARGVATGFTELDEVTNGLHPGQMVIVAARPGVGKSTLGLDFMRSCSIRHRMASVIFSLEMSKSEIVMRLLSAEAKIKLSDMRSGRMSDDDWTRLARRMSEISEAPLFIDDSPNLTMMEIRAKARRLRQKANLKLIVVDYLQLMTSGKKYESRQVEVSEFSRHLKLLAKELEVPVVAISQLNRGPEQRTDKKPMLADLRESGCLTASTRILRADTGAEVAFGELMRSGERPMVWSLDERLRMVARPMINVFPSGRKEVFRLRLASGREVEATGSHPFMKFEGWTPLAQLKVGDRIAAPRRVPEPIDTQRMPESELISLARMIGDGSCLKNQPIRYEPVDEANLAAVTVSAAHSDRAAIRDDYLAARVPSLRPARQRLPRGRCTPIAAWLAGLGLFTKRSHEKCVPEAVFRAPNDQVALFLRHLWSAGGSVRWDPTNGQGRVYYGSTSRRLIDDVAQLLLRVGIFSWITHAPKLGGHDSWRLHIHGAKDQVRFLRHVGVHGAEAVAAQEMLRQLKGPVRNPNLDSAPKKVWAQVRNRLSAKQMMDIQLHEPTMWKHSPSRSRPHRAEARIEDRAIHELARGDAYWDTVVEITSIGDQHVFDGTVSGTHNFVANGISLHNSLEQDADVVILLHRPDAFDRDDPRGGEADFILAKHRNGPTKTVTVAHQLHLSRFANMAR

[15] = biological target: T5, Polyadenylate-binding protein 1 (Homo sapiens, UniProt P11940); assay: PABP1 MLLE–PAM2 interaction inhibitors, dose response, miRNA deadenylation inhibitor project, biochemical, fluorescence polarization, Cy5-PAM2 peptide, secondary (AID 602260); format: functional; details: read-out: IC50_Mean
[16] = biological target: T5, Polyadenylate-binding protein 1; assay: PABP1 MLLE–PAM2 binding inhibitor potency, dose response, biochemical, fluorescence polarization, FITC-PAM2 peptide (AID 602259); format: functional; details: read-out: IC50_Mean
[17] = biological target: Genome polyprotein (dengue virus type 2, UniProt P29990); assay: Dengue-2 NS5 methyltransferase inhibitors, primary screen, biochemical, confirmation dose response (AID 588689); format: functional
[18] = test system: Vero; assay: cells; format: functional; details: Chlorocebus sabaeus
[19] = test system: Vero; assay: cells; format: functional, cell-based; details: Chlorocebus sabaeus

Paired box protein Pax-8, sequence (Q06710 whole entry): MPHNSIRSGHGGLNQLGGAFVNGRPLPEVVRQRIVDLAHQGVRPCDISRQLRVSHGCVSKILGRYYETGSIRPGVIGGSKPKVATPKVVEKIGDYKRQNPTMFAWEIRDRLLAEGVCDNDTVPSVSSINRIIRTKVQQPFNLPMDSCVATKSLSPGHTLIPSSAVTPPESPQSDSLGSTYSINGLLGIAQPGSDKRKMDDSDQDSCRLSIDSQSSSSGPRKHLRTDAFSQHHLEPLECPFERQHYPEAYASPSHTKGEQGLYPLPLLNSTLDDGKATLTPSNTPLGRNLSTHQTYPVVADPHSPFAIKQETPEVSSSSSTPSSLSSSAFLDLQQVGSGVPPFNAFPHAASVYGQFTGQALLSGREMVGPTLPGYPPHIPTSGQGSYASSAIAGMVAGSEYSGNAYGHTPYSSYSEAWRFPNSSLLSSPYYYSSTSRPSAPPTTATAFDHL
T5 sequence (P11940 whole entry): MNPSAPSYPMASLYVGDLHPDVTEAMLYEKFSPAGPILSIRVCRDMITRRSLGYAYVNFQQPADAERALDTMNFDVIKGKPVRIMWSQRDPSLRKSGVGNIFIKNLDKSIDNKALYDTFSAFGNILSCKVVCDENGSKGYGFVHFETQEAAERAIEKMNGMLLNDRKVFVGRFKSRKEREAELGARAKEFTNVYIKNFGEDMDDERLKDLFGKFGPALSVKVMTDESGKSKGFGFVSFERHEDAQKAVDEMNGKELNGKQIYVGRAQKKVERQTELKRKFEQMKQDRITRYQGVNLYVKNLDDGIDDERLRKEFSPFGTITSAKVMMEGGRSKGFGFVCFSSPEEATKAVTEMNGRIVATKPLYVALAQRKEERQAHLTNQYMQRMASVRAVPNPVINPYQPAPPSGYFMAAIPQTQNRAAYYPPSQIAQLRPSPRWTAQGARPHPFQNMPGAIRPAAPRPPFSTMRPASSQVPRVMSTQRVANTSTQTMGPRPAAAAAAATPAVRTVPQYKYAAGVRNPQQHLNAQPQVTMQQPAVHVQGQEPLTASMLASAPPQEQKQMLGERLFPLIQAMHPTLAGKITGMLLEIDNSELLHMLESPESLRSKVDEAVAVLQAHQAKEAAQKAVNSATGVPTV
Genome polyprotein, sequence (P29990 2492-3391 limits assumed): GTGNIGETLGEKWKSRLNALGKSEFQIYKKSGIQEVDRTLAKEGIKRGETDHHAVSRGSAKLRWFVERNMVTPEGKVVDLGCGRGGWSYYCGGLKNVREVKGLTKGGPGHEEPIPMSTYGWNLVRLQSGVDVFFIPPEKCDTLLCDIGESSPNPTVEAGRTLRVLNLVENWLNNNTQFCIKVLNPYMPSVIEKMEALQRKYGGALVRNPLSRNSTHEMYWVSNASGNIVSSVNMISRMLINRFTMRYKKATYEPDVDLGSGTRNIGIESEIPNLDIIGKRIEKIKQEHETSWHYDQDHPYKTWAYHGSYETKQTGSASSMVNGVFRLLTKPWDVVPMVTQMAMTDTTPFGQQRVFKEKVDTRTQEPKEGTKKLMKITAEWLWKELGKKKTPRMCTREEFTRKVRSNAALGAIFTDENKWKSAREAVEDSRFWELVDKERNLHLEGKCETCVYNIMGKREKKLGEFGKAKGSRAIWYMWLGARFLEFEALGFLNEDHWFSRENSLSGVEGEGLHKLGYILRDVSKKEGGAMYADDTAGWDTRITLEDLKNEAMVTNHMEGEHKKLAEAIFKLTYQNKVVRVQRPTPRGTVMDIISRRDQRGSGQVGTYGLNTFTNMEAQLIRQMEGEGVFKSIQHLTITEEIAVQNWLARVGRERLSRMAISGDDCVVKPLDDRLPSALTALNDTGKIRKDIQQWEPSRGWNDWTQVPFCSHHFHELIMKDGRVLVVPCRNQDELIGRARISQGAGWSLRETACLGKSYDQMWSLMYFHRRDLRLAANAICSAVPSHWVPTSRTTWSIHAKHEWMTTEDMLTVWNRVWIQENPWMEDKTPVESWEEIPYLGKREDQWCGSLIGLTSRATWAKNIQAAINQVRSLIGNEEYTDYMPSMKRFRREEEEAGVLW

With `O=C1/C(=C/c2cccnc2)CC/C1=C\c1cccnc1` the IC50 [1] was 7.46 µM (active) and the CC50 [2] was 27.2 µM (active).
In the case of `Cc1ccc(S(=O)(=O)c2ncccc2[N+](=O)[O-])cc1`, the EC50 [3] is reported as 2.73 µM (active), the AC50 [4] is reported as 23.6 µM (active) and the EC50 [5] is reported as 2.85 µM (active). The EC50 [6] was 3.92 µM (active), the AC50 [7] was 6.47 µM (active) and the EC50 [8] was 2.96 µM (active). For the same compound, the EC50 [9] was 4.37 µM (inconclusive), the AC50 [10] was 30.2 µM (active) and the AC50 [11] was 8.34 µM (active). The AC50 [12] was 1.91 µM (active).
With `CCN(CC)CCC(C)OC(c1ccccc1)c1ccccc1` (stereo not given) the IC50 [1] was 20.7 µM (inactive).
With `O=C(O)c1ccccc1Nc1cc(Cl)c2nonc2c1[N+](=O)[O-]` the EC50 [13] was 1.94 µM (active), the AC50 [14] was 0.0492 µM (active) and the IC50 [15] was > 66 µM (inactive). For the same compound, the IC50 [16] was > 66 µM (inactive).
In the case of `Cc1ccc(C(=O)C2=C(O)C(=O)OC2c2ccc(Cl)cc2)cc1` (stereo not given), the IC50 [1] is reported as 8.81 µM (active) and the IC50 [17] is reported as 60.8 µM (active).
For `O=C(CC1S/C(=N\c2cccc3ccccc23)N(Cc2ccccn2)C1=O)Nc1ccccc1Br` (stereo not given), the AC50 [4] was 67.5 µM (active) and the AC50 [11] was 15.4 µM (active).
For `C#CCN(C[C@@H]1[C@@H](OC(=O)Nc2cccs2)[C@@H](OC(=O)Nc2cccs2)Cn2c(=O)ccc(=O)n21)S(=O)(=O)c1ccc(C)cc1`, the IC50 [1] was 5.6 µM (active), the CC50 [18] was > 25 µM (active) and the IC50 [19] was 23.3 µM (active). The AC50 [11] was 4.22 µM (active).
